From publication PMC9250534, “Synthesis and direct assay of large macrocycle diversities by combinatorial late-stage modification at picomole scale” (Nature Communications, 2022)

Molecular target: MDM2 (Homo sapiens, UniProt Q00987)
Assay: MDM2 binding screen of Libraries 3 and 4: displacement of fluorescent probe F-M8 at 750 nM macrocycle
Conditions: Panel b, Library 3: 63 scaffolds combinatorially acylated with 15 carboxylic acids at 30 picomole scale; displacement of fluorescent peptide probe; macrocycle 750 nM
How it was run: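 Cyclic peptide scaffolds were acylated in DMSO with carboxylic acids (20 equiv.), HBTU and DABCO for 6 h at room temperature. Reactions were quenched overnight in 100 mM Tris-Cl pH 7.4, 0.01% Tween20. The fluorescein conjugate was also competed with nutlin-3a.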

Chain of MDM2 (Q00987 whole entry): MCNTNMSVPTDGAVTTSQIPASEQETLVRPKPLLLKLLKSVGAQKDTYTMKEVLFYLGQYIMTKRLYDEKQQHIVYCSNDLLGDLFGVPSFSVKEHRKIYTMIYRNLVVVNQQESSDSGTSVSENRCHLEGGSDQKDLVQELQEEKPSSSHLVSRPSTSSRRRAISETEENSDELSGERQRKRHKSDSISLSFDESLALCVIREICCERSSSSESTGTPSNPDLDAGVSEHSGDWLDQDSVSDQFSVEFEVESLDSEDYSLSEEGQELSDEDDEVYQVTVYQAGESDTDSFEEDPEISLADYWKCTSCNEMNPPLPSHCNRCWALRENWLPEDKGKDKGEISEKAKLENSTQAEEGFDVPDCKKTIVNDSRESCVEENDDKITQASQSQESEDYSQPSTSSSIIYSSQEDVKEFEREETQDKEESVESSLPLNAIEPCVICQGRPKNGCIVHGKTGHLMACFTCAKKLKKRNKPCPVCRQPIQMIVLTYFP

| SMILES | fraction of fluorescent probe displaced |
| --- | --- |
| O=C(/C=C/c1ccncc1)NC[C@H]1NC(=O)[C@H]2CCCN(C2)C(=O)CCSSCCNC(=O)[C@H](Cc2c[nH]c3ccccc23)NC1=O [X-Nip-D-Dap-Trp + Acid 106] | -0.002 |
| O=C(NC[C@H]1NC(=O)[C@H]2CCCN(C2)C(=O)CCSSCCNC(=O)[C@H](Cc2c[nH]c3ccccc23)NC1=O)c1cccc(Oc2ccccc2)c1 [X-Nip-D-Dap-Trp + Acid 111] | 0.008 |
| O=C(/C=C/c1ccc2ccccc2c1)NC[C@H]1NC(=O)[C@H]2CCCN(C2)C(=O)CCSSCCNC(=O)[C@H](Cc2c[nH]c3ccccc23)NC1=O [X-Nip-D-Dap-Trp + Acid 112] | -0.012 |
| CC(Oc1cccc(Cl)c1)C(=O)NC[C@H]1NC(=O)[C@H]2CCCN(C2)C(=O)CCSSCCNC(=O)[C@H](Cc2c[nH]c3ccccc23)NC1=O (stereo partly drawn) [X-Nip-D-Dap-Trp + Acid 113] | -0.019 |
| O=C(CCS(=O)(=O)c1ccccc1)NC[C@H]1NC(=O)[C@H]2CCCN(C2)C(=O)CCSSCCNC(=O)[C@H](Cc2c[nH]c3ccccc23)NC1=O [X-Nip-D-Dap-Trp + Acid 114] | -0.00533 |
| O=C(NC[C@@H]1NC(=O)[C@H]2CCCN(C2)C(=O)CCSSCCNC(=O)[C@H](Cc2cccc3ccccc23)NC1=O)c1ccc(Cl)s1 [X-Nip-Dap-1-NaI + Acid 14] | 0.028 |
| O=C(NC[C@@H]1NC(=O)[C@H]2CCCN(C2)C(=O)CCSSCCNC(=O)[C@H](Cc2cccc3ccccc23)NC1=O)c1ccc2ccccc2c1 [X-Nip-Dap-1-NaI + Acid 107] | 0.056 |
| O=C(/C=C/c1ccc(Cl)cc1)NC[C@@H]1NC(=O)[C@H]2CCCN(C2)C(=O)CCSSCCNC(=O)[C@H](Cc2cccc3ccccc23)NC1=O [X-Nip-Dap-1-NaI + Acid 108] | 0.041 |
| O=C(/C=C/c1ccc(OCc2ccccc2)cc1)NC[C@@H]1NC(=O)[C@H]2CCCN(C2)C(=O)CCSSCCNC(=O)[C@H](Cc2cccc3ccccc23)NC1=O [X-Nip-Dap-1-NaI + Acid 110] | 0.008 |
| O=C(/C=C/c1ccc2ccccc2c1)NC[C@@H]1NC(=O)[C@H]2CCCN(C2)C(=O)CCSSCCNC(=O)[C@H](Cc2cccc3ccccc23)NC1=O [X-Nip-Dap-1-NaI + Acid 112] | 0.095 |
| CC(Oc1cccc(Cl)c1)C(=O)NC[C@@H]1NC(=O)[C@H]2CCCN(C2)C(=O)CCSSCCNC(=O)[C@H](Cc2cccc3ccccc23)NC1=O (stereo partly drawn) [X-Nip-Dap-1-NaI + Acid 113] | -0.019 |
| O=C(NC[C@@H]1NC(=O)[C@H]2CCCN(C2)C(=O)CCSSCCNC(=O)[C@H](Cc2ccc3ccccc3c2)NC1=O)c1ccc(Cl)s1 [X-Nip-Dap-2-Nal + Acid 14] | 0.015 |
| O=C(/C=C/c1ccc(Cl)cc1)NC[C@@H]1NC(=O)[C@H]2CCCN(C2)C(=O)CCSSCCNC(=O)[C@H](Cc2ccc3ccccc3c2)NC1=O [X-Nip-Dap-2-Nal + Acid 108] | 0.021 |
| O=C(/C=C/c1ccc(OCc2ccccc2)cc1)NC[C@@H]1NC(=O)[C@H]2CCCN(C2)C(=O)CCSSCCNC(=O)[C@H](Cc2ccc3ccccc3c2)NC1=O [X-Nip-Dap-2-Nal + Acid 110] | 0.021 |
| O=C(/C=C/c1ccc2ccccc2c1)NC[C@@H]1NC(=O)[C@H]2CCCN(C2)C(=O)CCSSCCNC(=O)[C@H](Cc2ccc3ccccc3c2)NC1=O [X-Nip-Dap-2-Nal + Acid 112] | 0.021 |

Second part, the compound after the results:

| fraction of fluorescent probe displaced | SMILES |
| --- | --- |
| 0.181 | O=C(NC[C@@H]1NC(=O)[C@H]2CCCN(C2)C(=O)CCSSCCNC(=O)[C@H](Cc2c[nH]c3cc(Cl)ccc23)NC1=O)c1ccc(Cl)s1 [X-Nip-Dap-Cl-Trp + Acid 14] |
| 0.232 | O=C(NC[C@@H]1NC(=O)[C@H]2CCCN(C2)C(=O)CCSSCCNC(=O)[C@H](Cc2c[nH]c3cc(Cl)ccc23)NC1=O)c1ccc2ccccc2c1 [X-Nip-Dap-Cl-Trp + Acid 107] |
| 0.108 | O=C(/C=C/c1ccc(Cl)cc1)NC[C@@H]1NC(=O)[C@H]2CCCN(C2)C(=O)CCSSCCNC(=O)[C@H](Cc2c[nH]c3cc(Cl)ccc23)NC1=O [X-Nip-Dap-Cl-Trp + Acid 108] |
| 0.075 | O=C(NC[C@@H]1NC(=O)[C@H]2CCCN(C2)C(=O)CCSSCCNC(=O)[C@H](Cc2c[nH]c3cc(Cl)ccc23)NC1=O)c1cccc(Oc2ccccc2)c1 [X-Nip-Dap-Cl-Trp + Acid 111] |
| 0.221 | O=C(/C=C/c1ccc2ccccc2c1)NC[C@@H]1NC(=O)[C@H]2CCCN(C2)C(=O)CCSSCCNC(=O)[C@H](Cc2c[nH]c3cc(Cl)ccc23)NC1=O [X-Nip-Dap-Cl-Trp + Acid 112] |
| 0.008 | CC(Oc1cccc(Cl)c1)C(=O)NC[C@@H]1NC(=O)[C@H]2CCCN(C2)C(=O)CCSSCCNC(=O)[C@H](Cc2c[nH]c3cc(Cl)ccc23)NC1=O (stereo partly drawn) [X-Nip-Dap-Cl-Trp + Acid 113] |
| -0.012 | O=C(CCS(=O)(=O)c1ccccc1)NC[C@@H]1NC(=O)[C@H]2CCCN(C2)C(=O)CCSSCCNC(=O)[C@H](Cc2c[nH]c3cc(Cl)ccc23)NC1=O [X-Nip-Dap-Cl-Trp + Acid 114] |

Same assay, conditions: Panel c, Library 4: best nine scaffolds and 15 additional carboxylic acids; displacement of fluorescent probe

| SMILES | fraction of fluorescent probe displaced |
| --- | --- |
| O=C(/C=C/c1ccc(F)cc1)NC[C@@H]1NC(=O)[C@H]2CCCN(C2)C(=O)CCSSCCNC(=O)[C@H](Cc2cccc3ccccc23)NC1=O [X-Nip-Dap-1-NaI + Acid 116] | 0.052 |
| CCOc1ccc(/C=C/C(=O)NC[C@@H]2NC(=O)[C@H]3CCCN(C3)C(=O)CCSSCCNC(=O)[C@H](Cc3cccc4ccccc34)NC2=O)cc1 [X-Nip-Dap-1-NaI + Acid 117] | 0.069 |
| CCCOc1ccc(/C=C/C(=O)NC[C@@H]2NC(=O)[C@H]3CCCN(C3)C(=O)CCSSCCNC(=O)[C@H](Cc3cccc4ccccc34)NC2=O)cc1 [X-Nip-Dap-1-NaI + Acid 118] | -0.00464 |
| O=C(/C=C/c1ccc(Cl)c(Cl)c1)NC[C@@H]1NC(=O)[C@H]2CCCN(C2)C(=O)CCSSCCNC(=O)[C@H](Cc2cccc3ccccc23)NC1=O [X-Nip-Dap-1-NaI + Acid 119] | 0.0035 |
| O=C(/C=C/c1cccc(Cl)c1)NC[C@@H]1NC(=O)[C@H]2CCCN(C2)C(=O)CCSSCCNC(=O)[C@H](Cc2cccc3ccccc23)NC1=O [X-Nip-Dap-1-NaI + Acid 121] | -0.00464 |
| O=C(/C=C/c1cccc(C(F)(F)F)c1)NC[C@@H]1NC(=O)[C@H]2CCCN(C2)C(=O)CCSSCCNC(=O)[C@H](Cc2cccc3ccccc23)NC1=O [X-Nip-Dap-1-NaI + Acid 122] | 0.0035 |
| CC(=Cc1ccccc1)C(=O)NCC1NC(=O)C2CCCN(C2)C(=O)CCSSCCNC(=O)C(Cc2cccc3ccccc23)NC1=O (stereo not drawn) [X-Nip-Dap-1-NaI + Acid 123] | -0.013 |
| CC(C)c1ccc(/C=C/C(=O)NC[C@@H]2NC(=O)[C@H]3CCCN(C3)C(=O)CCSSCCNC(=O)[C@H](Cc3cccc4ccccc34)NC2=O)cc1 [X-Nip-Dap-1-NaI + Acid 127] | 0.0035 |
| O=C(NC[C@@H]1NC(=O)[C@H]2CCCN(C2)C(=O)CCSSCCNC(=O)[C@H](Cc2cccc3ccccc23)NC1=O)c1cnc2ccccc2n1 [X-Nip-Dap-1-NaI + Acid 130] | 0.020 |
| O=C(/C=C/c1ccc(F)cc1)NC[C@@H]1NC(=O)[C@H]2CCCN(C2)C(=O)CCSSCCNC(=O)[C@H](Cc2ccc3ccccc3c2)NC1=O [X-Nip-Dap-2-Nal + Acid 116] | 0.052 |

Results, then the compound that gave them:

| fraction of fluorescent probe displaced | SMILES |
| --- | --- |
| 0.069 | CCOc1ccc(/C=C/C(=O)NC[C@@H]2NC(=O)[C@H]3CCCN(C3)C(=O)CCSSCCNC(=O)[C@H](Cc3ccc4ccccc4c3)NC2=O)cc1 [X-Nip-Dap-2-Nal + Acid 117] |
| 0.012 | CCCOc1ccc(/C=C/C(=O)NC[C@@H]2NC(=O)[C@H]3CCCN(C3)C(=O)CCSSCCNC(=O)[C@H](Cc3ccc4ccccc4c3)NC2=O)cc1 [X-Nip-Dap-2-Nal + Acid 118] |
| 0.020 | O=C(/C=C/c1ccc(Cl)c(Cl)c1)NC[C@@H]1NC(=O)[C@H]2CCCN(C2)C(=O)CCSSCCNC(=O)[C@H](Cc2ccc3ccccc3c2)NC1=O [X-Nip-Dap-2-Nal + Acid 119] |
| 0.012 | O=C(/C=C/c1cccc(C(F)(F)F)c1)NC[C@@H]1NC(=O)[C@H]2CCCN(C2)C(=O)CCSSCCNC(=O)[C@H](Cc2ccc3ccccc3c2)NC1=O [X-Nip-Dap-2-Nal + Acid 122] |
| 0.012 | CC(=Cc1ccccc1)C(=O)NCC1NC(=O)C2CCCN(C2)C(=O)CCSSCCNC(=O)C(Cc2ccc3ccccc3c2)NC1=O (stereo not drawn) [X-Nip-Dap-2-Nal + Acid 123] |
| -0.021 | CC(C)c1ccc(/C=C/C(=O)NC[C@@H]2NC(=O)[C@H]3CCCN(C3)C(=O)CCSSCCNC(=O)[C@H](Cc3ccc4ccccc4c3)NC2=O)cc1 [X-Nip-Dap-2-Nal + Acid 127] |
| 0.0035 | O=C(NC[C@@H]1NC(=O)[C@H]2CCCN(C2)C(=O)CCSSCCNC(=O)[C@H](Cc2ccc3ccccc3c2)NC1=O)c1cnc2ccccc2n1 [X-Nip-Dap-2-Nal + Acid 130] |
| 0.289 | O=C(/C=C/c1ccc(F)cc1)NC[C@@H]1NC(=O)[C@H]2CCCN(C2)C(=O)CCSSCCNC(=O)[C@H](Cc2c[nH]c3cc(Cl)ccc23)NC1=O [X-Nip-Dap-Cl-Trp + Acid 116] |
| 0.207 | CCOc1ccc(/C=C/C(=O)NC[C@@H]2NC(=O)[C@H]3CCCN(C3)C(=O)CCSSCCNC(=O)[C@H](Cc3c[nH]c4cc(Cl)ccc34)NC2=O)cc1 [X-Nip-Dap-Cl-Trp + Acid 117] |
| 0.134 | O=C(/C=C/c1ccc(Cl)c(Cl)c1)NC[C@@H]1NC(=O)[C@H]2CCCN(C2)C(=O)CCSSCCNC(=O)[C@H](Cc2c[nH]c3cc(Cl)ccc23)NC1=O [X-Nip-Dap-Cl-Trp + Acid 119] |
